Results taken from US20260183402A1, “NUTRITIONAL COMPOSITION” (priority 2010, published 2026).
Read-outs that look alike come from different tables or passages of the source.

Settings: normal human subjects, measured over 24 hours

C[C@@H](O)CCOC(=O)C[C@@H](C)O [D-β-hydroxybutyrate-R 1,3-butanediol monoester]
maximum plasma ketone concentration (single dose 140 mg/kg ketone ester in milk-based drink): 0.23 mM | maximum plasma ketone concentration (single dose 357 mg/kg ketone ester in milk-based drink): 0.76 mM | maximum plasma ketone concentration (single dose 714 mg/kg ketone ester in milk-based drink): 3.42 mM
